From BigSolDB 2.1

O=C1CCCC(=O)C1
solubility (mole fraction)
Settings	288.15 K	293.15 K	298.15 K	303.15 K	308.15 K	313.15 K	318.15 K	323.15 K	328.15 K
in ethyl formate	0.0109	0.0141	0.0182	0.0231	0.0287	0.0359	0.0492	0.0591	0.0694
in ethyl propionate	0.0118	0.0139	0.017	0.0203	0.0246	0.0294	0.0353	0.041	0.0495
in isopropyl acetate	0.0125	0.0146	0.017	0.0194	0.0228	0.0269	0.0302	0.0368	0.0424
in methyl acetate	0.0146	0.02	0.0247	0.0313	0.0406	0.0524	0.0714	0.0886	0.105
in n-butyl acetate	0.0119	0.0141	0.0168	0.0202	0.0237	0.0282	0.0347	0.0403	0.0457
in n-propyl acetate	0.0121	0.0147	0.0176	0.0214	0.0263	0.0324	0.0381	0.0457	0.0535
in toluene	0.00171	0.00244	0.00335	0.00445	0.00577	0.00803	0.0106	0.0136	0.0165
